Test results: US5658938A, “Substituted 1H-imidazoles” (U C B S.A., priority 1994, dated 1997)
Where a name gives a salt, the structure may show the parent alone. Read-outs that look alike come from different tables or passages of the source.

Assays:
male NMRI mice = experiment: Toxicity, Irwin's test; type: in vivo; details: intraperitoneal
Description: The toxicity of the compounds of the invention has been determined in male NMRI mice by means of Irwin's test (S. Irwin, Psychopharmacologia (Berl.), 13, (1968), 222-257).
Progressive doses of the product studied are administered intraperitoneally to groups of three mice until a lethal dose is reached (dose causing the death of two out of three animals in 48 hours). It follows from this Table that the compounds of the invention are not very toxic.

[1] = test system: coronary occlusion in the rat; experiment: Anti-ischemic and anti-hypertensive activity: coronary occlusion in the anesthetized rat (elevation of the T wave of the electrocardiogram, arterial pressure); type: in vivo, male albino rat of the Sprague-Dawley strain; details: for change in vivo at 3 µmol/kg / change in vivo at 1 µmol/kg: Rattus norvegicus, iv
Description: The cardiac anti-ischemic activity of compounds manifests itself by their capacity to oppose the elevation of the T wave of the electrocardiogram, induced by a coronary occlusion in the rat. Continuous monitoring of the arterial pressure also enables to reveal the anti-hypertensive effects. The animal used for the test is a male albino rat of the Sprague-Dawley strain, weighing 220 to 280 g. On the day of the experiment, the animal is anesthetized by intraperitoneal administration of pentobarbital (60 mg/kg), then placed under endotracheal intubation. A ligature system is fitted around the descending left anterior coronary artery according to the procedure of Johnston et el. (Can. J. Physiol. Pharmacol., 61 (1983), 1340-1353). After closing the thorax, three electrodes are arranged on the body of the animal ("V4" thoracic derivation), in order to continuously record the shape of the electrocardiogram signal (in particular the T wave). Catheters are introduced into the right carotid artery and the right jugular vein to measure the arterial pressure and to administer intravenously the compound tested or the vehicle solution. Four 45 second coronary occlusions are performed, separated by episodes of reperfusion of 30, 35 and 30 minutes respectively. The compound to be studied or the vehicle are administered intravenously in bolus, 30 minutes before occlusion 3. The T electrocardiographic signal and the arterial pressure are continuously measured during the entire experiment.
The effects of the compounds according to the invention are quantified by comparing the amplitude of the elevation of the T wave at occlusions 3 and 4 (that is 30 minutes and 60 minutes after administration) with its value at occlusion 2 (that is before administration).
the second column indicates the dose of compound administered, expressed in mole/kg;
the third and the fourth columns indicate the anti-ischemic effect caused by administering the compound tested. The anti-ischemic effect represents the reduction in the elevation of the T wave caused by coronary occlusions 3 and 4, expressed in % with respect to occlusion 2, before administration of the compound (ΔT3 and ΔT4 respectively);
the fifth and sixth columns indicate the anti-hypertensive effect caused by administration of the compound tested. The anti-hypertensive effect is expressed as the maximum lowering of arterial pressure, measured a) between 5 and 30 minutes, and b) between 30 and 60 minutes after intravenous injection of the compound tested (ΔPa and ΔPb respectively). This lowering is expressed in % with respect to the value measured before injection.

[2] = test system: presynaptic α2 -adrenergic receptors; experiment: Inhibition of the contraction of the electrically stimulated guinea pig ileum (presynaptic α2-agonist activity); details: guinea pig ileum longitudinal muscle strips, electrical stimulation
Description: Longitudinal muscle strips attached to an isometric strain gauge are suspended in Tyrode's solution and are stretched under a tension of 1 g (G. M. Drew, Brit. J. Pharmacol. 64, (1978), 293-300; M. Andrejak et al., Naunyn-Schmiedeberg's Arch. Pharmacol. 314, (1980), 83-87).
Electrical stimulation of the parasympathetic nerves associated with the ileum fragments causes a contraction of the muscle. This contraction is reduced in the presence of a presynaptic α2 -agonist and the magnitude by which the contraction is reduced depends on the concentration of the agonist used. This effect is antagonised by the simultaneous presence of an α2 -antagonist such as alpha-yohimbine.
The IC30 concentration (in mole/l) that reduces by 30% the intensity of the contraction of the muscle is determined.

[3] = biological target: T1, postsynaptic α1 -adrenergic receptor (Rattus norvegicus, UniProt P23944); experiment: Postsynaptic α1-antagonist activity: inhibition of norepinephrine-induced contraction of the isolated aorta of the rat; details: read-out: ED30 (concentration which causes 30% inhibition of the contraction induced by norepinephrine)
T1 construct: isolated aorta of the rat; from tissue; host or cells: rat isolated aorta
T1 sequence (P23944 1-561): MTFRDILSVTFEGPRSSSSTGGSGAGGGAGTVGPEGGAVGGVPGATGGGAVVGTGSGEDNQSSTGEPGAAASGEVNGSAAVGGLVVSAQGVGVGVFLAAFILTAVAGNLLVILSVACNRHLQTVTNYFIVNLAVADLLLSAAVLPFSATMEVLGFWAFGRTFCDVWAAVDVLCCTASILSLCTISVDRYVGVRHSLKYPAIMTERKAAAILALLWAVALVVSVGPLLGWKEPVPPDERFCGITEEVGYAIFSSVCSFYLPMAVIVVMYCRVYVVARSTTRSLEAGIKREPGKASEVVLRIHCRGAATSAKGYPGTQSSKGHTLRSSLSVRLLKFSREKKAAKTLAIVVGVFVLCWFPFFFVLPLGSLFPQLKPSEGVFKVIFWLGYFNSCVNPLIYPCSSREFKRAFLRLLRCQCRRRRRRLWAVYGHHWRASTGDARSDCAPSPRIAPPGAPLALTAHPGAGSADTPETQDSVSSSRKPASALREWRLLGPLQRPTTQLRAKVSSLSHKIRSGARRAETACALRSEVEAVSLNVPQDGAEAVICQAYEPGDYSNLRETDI
Description: A non selective α-agonist substance such as norepinephrine induces a sustained contraction of the isolated aorta of the rat (J. M. Van Rossum Arch. Int. Pharmacodyn. 143, (1963), 299-330). This contraction can be inhibited by α1 -adrenergic blocking substances such as prazosin. In this test, a control contraction is carried out with norepinephrine at 3.2×10^-8 mole/l. After washing and stabilizing the preparation, the compound to be tested is added to the bath. Norepinephrine is added 5 minutes after the compound tested, and inhibition of the contraction induced by norepinephrine is measured. Next, inhibition of the contraction induced by norepinephrine is evaluated a second and third time in the presence of increasing concentrations of the compound tested.

[4] = 0.5 h, read-out: ΔPa (maximum lowering of arterial pressure)
[5] = 0.5 h, read-out: ΔT3 (anti-ischemic effect: change in elevation of the T wave, occlusion 3 vs occlusion 2)
[6] = 1 h, read-out: ΔPb (maximum lowering of arterial pressure)
[7] = 1 h, read-out: ΔT4 (anti-ischemic effect: change in elevation of the T wave, occlusion 4 vs occlusion 2)

Row | Compound | Lethal dose (dose causing the death of two out of three animals in 48 hours) (male NMRI mice) [mg/kg] | change in vivo at 3 µmol/kg [1, 4] [%] | change in vivo at 3 µmol/kg [1, 5] [%] | change in vivo at 3 µmol/kg [1, 6] [%] | change in vivo at 3 µmol/kg [1, 7] [%] | IC30 (concentration that reduces by 30% the intensity of the contraction of the muscle) [2] [nM] | IC30 [3] [nM] | other results
1 | COc1ccc2c(c1)CCCC2c1c[nH]cn1 (single isomer, unassigned; (+)) [Compound A, (+)-4-(1,2,3,4-tetrahydro-6-methoxy-1-naphthalenyl)-1H-imidazole] | 228.3 | -32 | -80 | -28 | -33 | 30 | 21 | –
2 | Oc1ccc2c(c1)CCCC2c1c[nH]cn1 (single isomer, unassigned; (+)) [Compound D, (+)-5,6,7,8-tetrahydro-5-(1H-imidazol-4-yl)-2-naphthalenol] | > 68.6 | – | – | – | – | 1.8 | 420 | change in vivo at 1 µmol/kg [1, 4]: -30%; change in vivo at 1 µmol/kg [1, 5]: -50%; change in vivo at 1 µmol/kg [1, 6]: -17%; change in vivo at 1 µmol/kg [1, 7]: -31%
3 | Cc1cccc2c1CCCC2c1c[nH]cn1 (stereo not drawn) [Compound B, 4-(1,2,3,4-tetrahydro-5-methyl-1-naphthalenyl)-1H-imidazole] | > 67.9 | -33 | -48 | -16 | -29 | 0.88 | 33 | –
4 | COc1ccc2c(c1)CCC2c1c[nH]cn1 (stereo not drawn) [Compound C, 4-(2,3-dihydro-5-methoxy-1H-inden-1-yl)-1H-imidazole] | 214.3 | -44 | -52 | -43 | -66 | 32 | 100 | –
5 | COc1cccc2c1CCCC2c1c[nH]cn1 (stereo not drawn) [Compound E, 4-(1,2,3,4-tetrahydro-5-methoxy-1-naphthalenyl)-1H-imidazole] | 127.8 | – | – | – | – | 1.7 | 460 | change in vivo at 1 µmol/kg [1, 4]: -45%; change in vivo at 1 µmol/kg [1, 5]: -31%; change in vivo at 1 µmol/kg [1, 6]: -20%; change in vivo at 1 µmol/kg [1, 7]: -13%
6 | Cl.Oc1cccc2c1CCCC2c1c[nH]cn1 (stereo not drawn) [Compound F, 5,6,7,8-tetrahydro-5-(1H-imidazol-4-yl)-1-naphthalenol hydrochloride] | 214.3 | -32 | -64 | -36 | -59 | 3.7 | 230 | –
7 | Cc1ccc2c(c1)CCCC2c1c[nH]cn1 (stereo not drawn) [Compound G, 4-(1,2,3,4-tetrahydro-6-methyl-1-naphthalenyl)-1H-imidazole] | 118.9 | -22 | -24 | -14 | -16 | 30 | 72 | –
8 | Cl.Oc1cc2c(cc1O)C(c1c[nH]cn1)CCC2 (stereo not drawn) [Compound K, 5,6,7,8-tetrahydro-5-(1H-imidazol-4-yl)-2,3-naphthalenediol hydrochloride] | > 85.4 | -29 | -49 | -41 | -47 | 16 | – | –
9 | NC(=O)c1cccc(Cc2c[nH]cn2)c1O [Mivazerol, 2-hydroxy-3-[(1H-imidazol-4-yl)methyl]benzamide hydrochloride, reference compound] | – | -1 | -34 | -6 | -22 | – | – | –
10 | Cc1cc(C(C)(C)C)c(O)c(C)c1CC1=NCCN1 [Oxymetazoline, 3-[(4,5-dihydro-1H-imidazol-2-yl)methyl]-6-(1,1-dimethylethyl)-2,4-dimethylphenol, reference compound] | – | – | – | – | – | 12 | – | change in vivo at 3 µmol/kg ([1]; 0.5 h, i.v. bolus, 3.2 × 10^-8 mole/kg, 30 minutes after administration, read-out: ΔT3 (anti-ischemic effect: change in elevation of the T wave, occlusion 3 vs occlusion 2)): -45%; change in vivo at 3 µmol/kg ([1]; 1 h, i.v. bolus, 3.2 × 10^-8 mole/kg, 60 minutes after administration, read-out: ΔT4 (anti-ischemic effect: change in elevation of the T wave, occlusion 4 vs occlusion 2)): -38%; change in vivo at 3 µmol/kg ([1]; 1 h, i.v. bolus, 3.2 × 10^-8 mole/kg, between 30 and 60 minutes after injection, read-out: ΔPb (maximum lowering of arterial pressure)): 0%
11 | COc1cc2nc(N3CCN(C(=O)c4ccco4)CC3)nc(N)c2cc1OC [Prazosin, 1-(4-amino-6,7-dimethoxy-2-quinazolinyl)-4-(2-furanylcarbonyl)piperazine, reference compound] | – | – | – | – | – | – | 0.23 | anti-ischemic effect, in words ([1]; i.v., Table I): absence of a significant anti-ischemic effect
12 | CC(C)NCC(O)COc1cccc2ccccc12 (stereo not drawn) [Propranolol, 1-[(1-methylethyl)amino]-3-(1-naphthalenyloxy)-2-propanol, reference compound] | – | – | – | – | – | – | – | change in vivo at 3 µmol/kg ([1]; 0.5 h, i.v. bolus, 3.2 × 10^-6 mole/kg, 30 minutes after administration, read-out: ΔT3 (anti-ischemic effect: change in elevation of the T wave, occlusion 3 vs occlusion 2)): -21%; change in vivo at 3 µmol/kg ([1]; 0.5 h, i.v. bolus, 3.2 × 10^-6 mole/kg, between 5 and 30 minutes after injection, read-out: ΔPa (maximum lowering of arterial pressure)): 7%; change in vivo at 3 µmol/kg ([1]; 1 h, i.v. bolus, 3.2 × 10^-6 mole/kg, 60 minutes after administration, read-out: ΔT4 (anti-ischemic effect: change in elevation of the T wave, occlusion 4 vs occlusion 2)): -30%; change in vivo at 3 µmol/kg ([1]; 1 h, i.v. bolus, 3.2 × 10^-6 mole/kg, between 30 and 60 minutes after injection, read-out: ΔPb (maximum lowering of arterial pressure)): 5%
